Reference: PubChem BioAssay (NCI)
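Five compound concentrations were applied to cells in 96-well plates for 48 hours; endpoints were derived by simple linear interpolation of the resulting dose-response curve. GI50: concentration for 50% inhibition of growth. TGI is the concentration that stops growth completely.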

How the values were obtained:
Assay in all cases: inhibition of tumour cell growth, NCI panel, 48 h
BT-549 breast = tested on: BT-549 breast
HOP-92 NSCLC = tested on: HOP-92 NSCLC
MCF7 breast = tested on: MCF7 breast
NCI/ADR-RES ovarian = tested on: NCI/ADR-RES ovarian
PC-3 prostate = tested on: PC-3 prostate
MDA-MB-435 = tested on: MDA-MB-435
T-47D breast = tested on: T-47D breast

COc1ccc(C2=CC(c3cc(OC)c(OC)c(OC)c3)n3ncnc3N2)cc1 (stereo unspecified)
GI50 (BT-549 breast): 0.0684 µM
TGI (BT-549 breast): 2.04 µM
GI50 (HOP-92 NSCLC): 11.3 µM
TGI (HOP-92 NSCLC): 37.3 µM
GI50 (MCF7 breast): 0.0399 µM
TGI (MCF7 breast): 13.7 µM
GI50 (NCI/ADR-RES ovarian): 0.0444 µM
TGI (NCI/ADR-RES ovarian): 20.3 µM
GI50 (PC-3 prostate): 0.0536 µM
TGI (PC-3 prostate): > 100 µM

CC[C@@]1(OC(=O)CN)C(=O)OCc2c1cc1n(c2=O)Cc2cc3cc(N)ccc3nc2-1
GI50 (BT-549 breast): 1.3 µM
TGI (BT-549 breast): > 100 µM
GI50 (HOP-92 NSCLC): < 0.01 µM
TGI (HOP-92 NSCLC): 0.0705 µM
GI50 (MCF7 breast): < 0.01 µM
TGI (MCF7 breast): > 100 µM
GI50 (MDA-MB-435): 0.0802 µM
TGI (MDA-MB-435): 0.381 µM
GI50 (NCI/ADR-RES ovarian): < 0.0103 µM
TGI (NCI/ADR-RES ovarian): 0.125 µM
GI50 (PC-3 prostate): 0.0711 µM
TGI (PC-3 prostate): > 100 µM
GI50 (T-47D breast): < 0.0359 µM
TGI (T-47D breast): > 100 µM

CCCCCCCCCCCCCCCC[N+]1(CC)CCCC1
GI50 (HOP-92 NSCLC): 0.227 µM
TGI (HOP-92 NSCLC): 1.33 µM
GI50 (NCI/ADR-RES ovarian): 12.9 µM
TGI (NCI/ADR-RES ovarian): 38.4 µM
GI50 (PC-3 prostate): 0.284 µM
TGI (PC-3 prostate): 1.15 µM
GI50 (T-47D breast): 0.528 µM
TGI (T-47D breast): 3.93 µM

Cc1nn(-c2ccccc2)c2c1C1C(=C(c3ccc(Cl)cc3)N2)C(=O)Nc2ccccc21 (stereo unspecified)
GI50 (BT-549 breast): 2.81 µM
TGI (BT-549 breast): 9.32 µM
GI50 (MCF7 breast): 3.16 µM
TGI (MCF7 breast): > 100 µM
GI50 (MDA-MB-435): 3.26 µM
TGI (MDA-MB-435): 17.2 µM
GI50 (NCI/ADR-RES ovarian): 4.32 µM
TGI (NCI/ADR-RES ovarian): > 100 µM
GI50 (PC-3 prostate): 2.65 µM
TGI (PC-3 prostate): 13.1 µM
GI50 (T-47D breast): 4.33 µM
TGI (T-47D breast): 38.5 µM

COc1cc(C(c2cc3c(cc2O)OCO3)N2CCCC2)cc(OC)c1OC (stereo unspecified)
TGI (HOP-92 NSCLC): 20 µM
TGI (MCF7 breast): 63.8 µM
TGI (MDA-MB-435): 32.5 µM
TGI (NCI/ADR-RES ovarian): 56.4 µM
TGI (PC-3 prostate): 34.7 µM
TGI (T-47D breast): 45.7 µM

O=C1C=C(Nc2cccc(Br)c2)c2ccccc2C1=O
GI50 (BT-549 breast): 4.58 µM
TGI (BT-549 breast): 33.9 µM
GI50 (MCF7 breast): 2.71 µM
TGI (MCF7 breast): 24.2 µM
GI50 (MDA-MB-435): 0.19 µM
TGI (MDA-MB-435): 0.484 µM
GI50 (NCI/ADR-RES ovarian): 10.8 µM
TGI (NCI/ADR-RES ovarian): 51.6 µM
GI50 (PC-3 prostate): 8.68 µM
TGI (PC-3 prostate): > 100 µM

Nc1ncnc2occ(-c3ccc(NC(=O)Nc4cc(C(F)(F)F)cc(C(F)(F)F)c4)cc3)c12
GI50 (BT-549 breast): 2.66 µM
TGI (BT-549 breast): 5.77 µM
GI50 (HOP-92 NSCLC): 0.977 µM
TGI (HOP-92 NSCLC): 4.42 µM
GI50 (MCF7 breast): 3.19 µM
TGI (MCF7 breast): 6.96 µM
GI50 (MDA-MB-435): 3.45 µM
TGI (MDA-MB-435): 7.15 µM
GI50 (NCI/ADR-RES ovarian): 3.44 µM
TGI (NCI/ADR-RES ovarian): 9.07 µM
GI50 (PC-3 prostate): 3.07 µM
TGI (PC-3 prostate): 8.33 µM
GI50 (T-47D breast): 3.27 µM
TGI (T-47D breast): 7.54 µM

COc1cc2oc3ccccc3c(=O)c2cc1CSc1ccccc1N
TGI (BT-549 breast): > 100 µM
TGI (HOP-92 NSCLC): > 100 µM
TGI (MCF7 breast): > 100 µM
TGI (MDA-MB-435): 8.93 µM
TGI (NCI/ADR-RES ovarian): > 70.9 µM
TGI (PC-3 prostate): > 100 µM
TGI (T-47D breast): 27.8 µM

N#CC1c2ccccc2-c2ccccc2N1C(=O)c1ccccc1 (stereo unspecified)
GI50 (BT-549 breast): 0.507 µM
TGI (BT-549 breast): 2.54 µM
GI50 (HOP-92 NSCLC): 2.42 µM
TGI (HOP-92 NSCLC): 19.9 µM
GI50 (MCF7 breast): 1.3 µM
TGI (MCF7 breast): > 100 µM
GI50 (MDA-MB-435): 0.255 µM
TGI (MDA-MB-435): 0.761 µM
GI50 (NCI/ADR-RES ovarian): 1.81 µM
TGI (NCI/ADR-RES ovarian): > 100 µM
GI50 (PC-3 prostate): 6.86 µM
TGI (PC-3 prostate): > 100 µM
GI50 (T-47D breast): 25.7 µM
TGI (T-47D breast): > 100 µM

Cc1ccc([P+](Cc2ccc([N+](=O)[O-])cc2)(c2ccc(C)cc2)c2ccc(C)cc2)cc1
GI50 (BT-549 breast): 2.68 µM
TGI (BT-549 breast): 8.87 µM
GI50 (MCF7 breast): 2.72 µM
TGI (MCF7 breast): 12.6 µM
GI50 (MDA-MB-435): 0.772 µM
TGI (MDA-MB-435): 3.6 µM
GI50 (NCI/ADR-RES ovarian): 68.3 µM
TGI (NCI/ADR-RES ovarian): > 100 µM
GI50 (PC-3 prostate): 2.64 µM
TGI (PC-3 prostate): 14.3 µM

CC1(C)N=C(N)N=C(N)N1c1ccc(OCC(=O)Nc2cccc(S(=O)(=O)F)c2)c(Cl)c1
GI50 (BT-549 breast): > 100 µM
TGI (BT-549 breast): > 100 µM
TGI (HOP-92 NSCLC): > 100 µM
TGI (MCF7 breast): > 43.5 µM
TGI (MDA-MB-435): > 100 µM
TGI (NCI/ADR-RES ovarian): > 100 µM
TGI (PC-3 prostate): > 76.6 µM
TGI (T-47D breast): > 100 µM

O=C(/C=C/N1CCN(c2cccc(C(F)(F)F)c2)CC1)c1ccc(Cl)cc1Cl
GI50 (BT-549 breast): 20.5 µM
TGI (BT-549 breast): 40.3 µM
GI50 (HOP-92 NSCLC): 20.6 µM
TGI (HOP-92 NSCLC): 50.7 µM
GI50 (MCF7 breast): 24.7 µM
TGI (MCF7 breast): 60.7 µM
GI50 (MDA-MB-435): 25.6 µM
TGI (MDA-MB-435): 44.6 µM
GI50 (NCI/ADR-RES ovarian): 21.7 µM
TGI (NCI/ADR-RES ovarian): 50.8 µM
GI50 (PC-3 prostate): 31.7 µM
TGI (PC-3 prostate): > 100 µM
GI50 (T-47D breast): 82.8 µM
TGI (T-47D breast): > 100 µM

COc1ccc(C[C@H]2C[C@@H](O)[C@@H](C)C/C=C/Cc3cccc(O)c3C(=O)O2)cn1
GI50 (BT-549 breast): 20.7 µM
TGI (BT-549 breast): 48.8 µM
GI50 (MCF7 breast): 19.5 µM
TGI (MCF7 breast): 66.6 µM
GI50 (MDA-MB-435): 19.9 µM
TGI (MDA-MB-435): 46.6 µM
GI50 (NCI/ADR-RES ovarian): 19.1 µM
TGI (NCI/ADR-RES ovarian): 48.8 µM
GI50 (T-47D breast): 33.1 µM
TGI (T-47D breast): > 100 µM

COc1ccc2c(c1O)[C@@]13C=C(O)C(=O)C=C1[C@@H](C2)N(C)CC3
TGI (BT-549 breast): > 100 µM
TGI (HOP-92 NSCLC): > 100 µM
TGI (MCF7 breast): > 100 µM
TGI (MDA-MB-435): > 100 µM
TGI (NCI/ADR-RES ovarian): > 100 µM
TGI (PC-3 prostate): > 100 µM
TGI (T-47D breast): > 100 µM

COc1ccc2nc3ccc(OC)cc3c(SCCCN)c2c1
GI50 (BT-549 breast): 10.5 µM
TGI (BT-549 breast): 23.4 µM
GI50 (HOP-92 NSCLC): 3.59 µM
TGI (HOP-92 NSCLC): 13.1 µM
GI50 (MDA-MB-435): 6.83 µM
TGI (MDA-MB-435): 27.6 µM
GI50 (NCI/ADR-RES ovarian): 13.1 µM
TGI (NCI/ADR-RES ovarian): 37.1 µM
GI50 (PC-3 prostate): 1.71 µM
TGI (PC-3 prostate): 4.68 µM
GI50 (T-47D breast): 3.08 µM
TGI (T-47D breast): 14.2 µM

Cc1nnc([S-])s1.[Au+].c1ccc([PH+](c2ccccc2)c2ccccc2)cc1
GI50 (BT-549 breast): 1.47 µM
TGI (BT-549 breast): 2.88 µM
GI50 (HOP-92 NSCLC): 1.82 µM
TGI (HOP-92 NSCLC): 3.24 µM
GI50 (MDA-MB-435): 1.7 µM
TGI (MDA-MB-435): 3.18 µM
GI50 (PC-3 prostate): 1.52 µM
TGI (PC-3 prostate): 2.92 µM
GI50 (T-47D breast): 2.2 µM
TGI (T-47D breast): 6.12 µM

COc1ccccc1C(=O)c1cnc(NC2CCN(S(C)(=O)=O)CC2)nc1N
GI50 (BT-549 breast): > 13.3 µM
TGI (BT-549 breast): > 25 µM
GI50 (HOP-92 NSCLC): 6.14 µM
TGI (HOP-92 NSCLC): > 22.9 µM
GI50 (MCF7 breast): 1.19 µM
TGI (MCF7 breast): > 25 µM
GI50 (MDA-MB-435): 4.83 µM
TGI (MDA-MB-435): > 25 µM
GI50 (NCI/ADR-RES ovarian): > 25 µM
TGI (NCI/ADR-RES ovarian): > 25 µM
GI50 (PC-3 prostate): 3.48 µM
TGI (PC-3 prostate): > 25 µM
GI50 (T-47D breast): 8.8 µM
TGI (T-47D breast): > 25 µM

CCCC/C(=N\N=C(N)N)c1ccc(F)cc1
GI50 (BT-549 breast): 3.48 µM
TGI (BT-549 breast): 12.5 µM
GI50 (HOP-92 NSCLC): 2.13 µM
TGI (HOP-92 NSCLC): 8.93 µM
GI50 (MCF7 breast): 0.758 µM
TGI (MCF7 breast): 11.9 µM
GI50 (MDA-MB-435): 0.381 µM
TGI (MDA-MB-435): 2.22 µM
GI50 (NCI/ADR-RES ovarian): 2.38 µM
TGI (NCI/ADR-RES ovarian): 8.29 µM
GI50 (PC-3 prostate): 2.85 µM
TGI (PC-3 prostate): 14.3 µM
GI50 (T-47D breast): 2.61 µM
TGI (T-47D breast): 15.6 µM

COC(=O)[C@H](Cc1ccccc1)NC(=O)c1csc([C@@H](C[C@H](C(C)C)N(C)C(=O)[C@@H](NC(=O)[C@H]2CCCCN2C)C2CC2)OC(C)=O)n1
GI50 (BT-549 breast): 0.0349 µM
TGI (BT-549 breast): 0.556 µM
GI50 (HOP-92 NSCLC): 0.137 µM
TGI (HOP-92 NSCLC): 4.18 µM
GI50 (MCF7 breast): 0.0108 µM
TGI (MCF7 breast): > 25 µM
GI50 (MDA-MB-435): 0.00884 µM
TGI (MDA-MB-435): 0.0841 µM
GI50 (NCI/ADR-RES ovarian): 2.05 µM
TGI (NCI/ADR-RES ovarian): > 25 µM
GI50 (PC-3 prostate): 0.0509 µM
TGI (PC-3 prostate): > 25 µM
GI50 (T-47D breast): > 25 µM
TGI (T-47D breast): > 25 µM

C/C(=C(/c1ccc(O)cc1)c1ccc(OCCN2CCCC2)cc1)c1ccccc1
GI50 (BT-549 breast): 4.2 µM
TGI (BT-549 breast): 15.7 µM
GI50 (HOP-92 NSCLC): 2.24 µM
TGI (HOP-92 NSCLC): 7.34 µM
TGI (MCF7 breast): 2.72 µM
GI50 (MDA-MB-435): 1.88 µM
TGI (MDA-MB-435): 4.4 µM
GI50 (NCI/ADR-RES ovarian): 4.17 µM
TGI (NCI/ADR-RES ovarian): 18.3 µM
GI50 (PC-3 prostate): 4.28 µM
TGI (PC-3 prostate): 14.7 µM
GI50 (T-47D breast): 0.716 µM
TGI (T-47D breast): 7.93 µM
